Results from the supplement of paper PMC10883282.

Columns and labels:
Experiment in all cases: relative viability vs DMSO control (72 h) (fraction); higher = more viable cells
[1] = test system: HS729
Procedure, shortened: (§1)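 Sarcoma cell lines were grown in 384-well plates seeded toward 80–90% confluence and exposed 24 h later to serially diluted compound. After 72 h at 37 °C and 5% CO2, with 0.1% DMSO vehicle and a 5 µM positive control on the plates, ATPLite was read. Relative viability, given as percent growth averaged over up to triplicate wells, was rescaled so that 1 is full and 0 is none.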

[2] = test system: KHOS-240S
Procedure, shortened: as §1

[3] = test system: SYO-1
Procedure, shortened: as §1

[4] = test system: MES-SA
Procedure, shortened: as §1

[5] = test system: SW1353
Procedure, shortened: as §1

[6] = test system: G401
Procedure, shortened: as §1

[7] = test system: SW684
Procedure, shortened: as §1

[8] = test system: SK-LMS-1
Procedure, shortened: as §1

[9] = test system: A204
Procedure, shortened: as §1

[10] = test system: SW982
Procedure, shortened: as §1

[11] = test system: SW872
Procedure, shortened: as §1

[12] = test system: SK-ES-1
Procedure, shortened: as §1

C[C@@H]1COC(Nc2ccc3ncnc(Nc4ccc(OCc5nccs5)c(Cl)c4)c3c2)=N1 [Varlitinib]
Conditions	relative viability
[1], 0.00017 µM	1.08
[1], 0.00051 µM	1.05
[1], 0.00152 µM	1.08
[1], 0.00457 µM	1.06
[1], 0.01372 µM	1.03
[1], 0.04115 µM	1.05
[1], 0.1235 µM	0.993
[1], 0.3704 µM	0.994
[1], 1.111 µM	0.9668
[1], 3.333 µM	0.931
[1], 10 µM	0.76
[2], 0.00017 µM	1.02
[2], 0.00051 µM	1.03
[2], 0.00152 µM	1.02
[2], 0.00457 µM	1.05
[2], 0.01372 µM	1.048
[2], 0.04115 µM	1.05
[2], 0.1235 µM	1.05
[2], 0.3704 µM	0.996
[2], 1.111 µM	0.9899
[2], 3.333 µM	0.947
[2], 10 µM	0.849
[3], 0.00017 µM	1.04
[3], 0.00051 µM	1.04
[3], 0.00152 µM	1.03
[3], 0.00457 µM	1.03
[3], 0.01372 µM	1.02
[3], 0.04115 µM	1.03
[3], 0.1235 µM	1.02
[3], 0.3704 µM	1.02
[3], 1.111 µM	1.01
[3], 3.333 µM	0.941
[3], 10 µM	0.55
[4], 0.00017 µM	0.965
[4], 0.00051 µM	0.965
[4], 0.00152 µM	0.934
[4], 0.00457 µM	0.97
[4], 0.01372 µM	0.946
[4], 0.04115 µM	0.9545
[4], 0.1235 µM	0.945
[4], 0.3704 µM	0.888
[4], 1.111 µM	0.888
[4], 3.333 µM	0.807
[4], 10 µM	0.45
[5], 0.00017 µM	1.03
[5], 0.00051 µM	0.981
[5], 0.00152 µM	0.968
[5], 0.00457 µM	1.04
[5], 0.01372 µM	0.978
[5], 0.04115 µM	1.01
[5], 0.1235 µM	0.947
[5], 0.3704 µM	0.886
[5], 1.111 µM	0.824
[5], 3.333 µM	0.812
[5], 10 µM	0.738
[6], 0.00017 µM	0.96
[6], 0.00051 µM	0.979
[6], 0.00152 µM	0.993
[6], 0.00457 µM	0.966
[6], 0.01372 µM	0.981
[6], 0.04115 µM	0.993
[6], 0.1235 µM	0.973
[6], 0.3704 µM	0.939
[6], 1.111 µM	0.8904
[6], 3.333 µM	0.8118
[6], 10 µM	0.663
[7], 0.00017 µM	1.01
[7], 0.00051 µM	1.09
[7], 0.00152 µM	1.07
[7], 0.00457 µM	1.08
[7], 0.01372 µM	1.08
[7], 0.04115 µM	1.08
[7], 0.1235 µM	1.063
[7], 0.3704 µM	1.08
[7], 1.111 µM	1.06
[7], 3.333 µM	1.03
[7], 10 µM	1.03
[8], 0.00017 µM	1.01
[8], 0.00051 µM	1.033
[8], 0.00152 µM	1.06
[8], 0.00457 µM	1
[8], 0.01372 µM	1.02
[8], 0.04115 µM	1.04
[8], 0.1235 µM	1.04
[8], 0.3704 µM	1.04
[8], 1.111 µM	1.04
[8], 3.333 µM	0.976
[8], 10 µM	0.872
[9], 0.00017 µM	1.06
[9], 0.00051 µM	1.06
[9], 0.00152 µM	1.07
[9], 0.00457 µM	1.06
[9], 0.01372 µM	1.08
[9], 0.04115 µM	1.11
[9], 0.1235 µM	1.06
[9], 0.3704 µM	1.01
[9], 1.111 µM	0.905
[9], 3.333 µM	0.763
[9], 10 µM	0.258
[10], 0.00017 µM	0.982
[10], 0.00051 µM	1.01
[10], 0.00152 µM	0.966
[10], 0.00457 µM	0.974
[10], 0.01372 µM	0.986
[10], 0.04115 µM	0.993
[10], 0.1235 µM	0.984
[10], 0.3704 µM	0.932
[10], 1.111 µM	0.918
[10], 3.333 µM	0.949
[10], 10 µM	0.883
[11], 0.00017 µM	1.09
[11], 0.00051 µM	1.07
[11], 0.00152 µM	1.1
[11], 0.00457 µM	1.08
[11], 0.01372 µM	1.065
[11], 0.04115 µM	1.08
[11], 0.1235 µM	1.05
[11], 0.3704 µM	1.04
[11], 1.111 µM	0.993
[11], 3.333 µM	0.939
[11], 10 µM	0.743
[12], 0.00017 µM	0.975
[12], 0.00051 µM	0.974
[12], 0.00152 µM	0.976
[12], 0.00457 µM	0.99
[12], 0.01372 µM	0.971
[12], 0.04115 µM	0.997
[12], 0.1235 µM	0.967
[12], 0.3704 µM	0.962
[12], 1.111 µM	0.948
[12], 3.333 µM	0.873
[12], 10 µM	0.671

CC[C@@H]1C(=O)N(C)c2cnc(Nc3ccc(C(=O)N[C@H]4CC[C@H](N5CCN(CC6CC6)CC5)CC4)cc3OC)nc2N1C(C)C [Volasertib]
Conditions	relative viability
[1], 0.00017 µM	0.954
[1], 0.00051 µM	0.995
[1], 0.00152 µM	0.981
[1], 0.00457 µM	0.954
[1], 0.01372 µM	0.87
[1], 0.04115 µM	0.685
[1], 0.1235 µM	0.622
[1], 0.3704 µM	0.657
[1], 1.111 µM	0.641
[1], 3.333 µM	0.612
[1], 10 µM	0.0591
[2], 0.00017 µM	1.07
[2], 0.00051 µM	1.054
[2], 0.00152 µM	1.06
[2], 0.00457 µM	1.06
[2], 0.01372 µM	0.979
[2], 0.04115 µM	0.319
[2], 0.1235 µM	0.221
[2], 0.3704 µM	0.189
[2], 1.111 µM	0.171
[2], 3.333 µM	0.122
[2], 10 µM	0.0197
[3], 0.00017 µM	0.966
[3], 0.00051 µM	0.974
[3], 0.00152 µM	0.958
[3], 0.00457 µM	0.912
[3], 0.01372 µM	0.549
[3], 0.04115 µM	0.352
[3], 0.1235 µM	0.311
[3], 0.3704 µM	0.131
[3], 1.111 µM	0.00893
[3], 3.333 µM	-0.0446
[3], 10 µM	-0.0423
[4], 0.00017 µM	0.938
[4], 0.00051 µM	0.966
[4], 0.00152 µM	0.936
[4], 0.00457 µM	0.932
[4], 0.01372 µM	0.924
[4], 0.04115 µM	0.637
[4], 0.1235 µM	0.173
[4], 0.3704 µM	0.0889
[4], 1.111 µM	0.0861
[4], 3.333 µM	0.072
[4], 10 µM	0.0076
[5], 0.00017 µM	0.972
[5], 0.00051 µM	0.954
[5], 0.00152 µM	0.945
[5], 0.00457 µM	0.949
[5], 0.01372 µM	0.958
[5], 0.04115 µM	0.902
[5], 0.1235 µM	0.635
[5], 0.3704 µM	0.52
[5], 1.111 µM	0.4419
[5], 3.333 µM	0.3712
[5], 10 µM	0.063
[6], 0.00017 µM	1.01
[6], 0.00051 µM	1.03
[6], 0.00152 µM	1.05
[6], 0.00457 µM	1.03
[6], 0.01372 µM	1.02
[6], 0.04115 µM	0.845
[6], 0.1235 µM	0.5129
[6], 0.3704 µM	0.427
[6], 1.111 µM	0.338
[6], 3.333 µM	0.243
[6], 10 µM	0.00683
[7], 0.00017 µM	1.19
[7], 0.00051 µM	1.21
[7], 0.00152 µM	1.22
[7], 0.00457 µM	1.17
[7], 0.01372 µM	1.13
[7], 0.04115 µM	0.694
[7], 0.1235 µM	0.675
[7], 0.3704 µM	0.731
[7], 1.111 µM	0.675
[7], 3.333 µM	0.6025
[7], 10 µM	0.0835
[8], 0.00017 µM	1.04
[8], 0.00051 µM	1.01
[8], 0.00152 µM	1.05
[8], 0.00457 µM	1.04
[8], 0.01372 µM	1
[8], 0.04115 µM	0.551
[8], 0.1235 µM	0.492
[8], 0.3704 µM	0.453
[8], 1.111 µM	0.459
[8], 3.333 µM	0.3806
[8], 10 µM	0.0152
[9], 0.00017 µM	1.13
[9], 0.00051 µM	1.1
[9], 0.00152 µM	1.07
[9], 0.00457 µM	1.1
[9], 0.01372 µM	1.08
[9], 0.04115 µM	0.858
[9], 0.1235 µM	0.669
[9], 0.3704 µM	0.418
[9], 1.111 µM	0.253
[9], 3.333 µM	0.174
[9], 10 µM	0.0197
[10], 0.00017 µM	1.047
[10], 0.00051 µM	1.07
[10], 0.00152 µM	1.08
[10], 0.00457 µM	1.06
[10], 0.01372 µM	1.01
[10], 0.04115 µM	0.353
[10], 0.1235 µM	0.259
[10], 0.3704 µM	0.209
[10], 1.111 µM	0.182
[10], 3.333 µM	0.15
[10], 10 µM	0.0111
[11], 0.00017 µM	1.06
[11], 0.00051 µM	1.03
[11], 0.00152 µM	1.05
[11], 0.00457 µM	1.08
[11], 0.01372 µM	1.06
[11], 0.04115 µM	0.623
[11], 0.1235 µM	0.437
[11], 0.3704 µM	0.269
[11], 1.111 µM	0.176
[11], 3.333 µM	0.0454
[11], 10 µM	0.00513
[12], 0.00017 µM	1.09
[12], 0.00051 µM	1.1
[12], 0.00152 µM	1.08
[12], 0.00457 µM	1.1
[12], 0.01372 µM	1.05
[12], 0.04115 µM	0.495
[12], 0.1235 µM	0.0483
[12], 0.3704 µM	0.0522
[12], 1.111 µM	0.0871
[12], 3.333 µM	0.114
[12], 10 µM	0.0116
